Laboratory results from patent US12077503B2, “Substituted cyclic amides and their use as herbicides” (FMC CORPORATION, priority 2015, dated 2024).

Tests used:
Assay type in all cases: in vivo
[1] = test system: barnyardgrass (Echinochloa crus-galli); assay: Test G Post-Emergence Protocol; details: Echinochloa crus-galli, post-emergence, 312 h; for pest or weed control at 15.625 g/ha: 15.625 g ai/ha, evaluated after 13 days (100=total damage to plant; 0=no damage to plant), read-out: Barnyardgrass damage rating; for pest or weed control at 62.5 g/ha: 62.5 g ai/ha, read-out: Barnyardgrass damage rating (100=total damage to plant; 0=no damage to plant); for pest or weed control at 62.5 g/ha / pest or weed control at 250 g/ha: evaluated after 13 days; for pest or weed control at 250 g/ha: 250 g ai/ha, read-out: damage to plant, Barnyardgrass (100=total damage to plant; 0=no damage to plant)
In short: (§1)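 Scores run 0 (no damage) to 100 (total damage) and were taken 13 days after spraying. Plants had been raised in pots for 8 days under glasshouse control (24/16 °C, 14 h photoperiod, 65% humidity) and then treated at 15.625, 62.5 or 250 g/ha.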

corn (Zea mays) [2] = assay: Test G Post-Emergence Protocol; details: Zea mays, post-emergence, 312 h; for plant injury at 15.625 g/ha: 15.625 g ai/ha, evaluated after 13 days (100=total damage to plant; 0=no damage to plant), read-out: Corn damage rating; for plant injury at 62.5 g/ha: 62.5 g ai/ha, read-out: Corn damage rating (100=total damage to plant; 0=no damage to plant); for plant injury at 62.5 g/ha / plant injury at 250 g/ha: evaluated after 13 days; for plant injury at 250 g/ha: 250 g ai/ha, read-out: damage to plant, Corn (100=total damage to plant; 0=no damage to plant)
In short: as §1

[3] = test system: velvetleaf (Abutilon theophrasti); assay: Test G Post-Emergence Protocol; details: Abutilon theophrasti, post-emergence, 312 h; for pest or weed control at 15.625 g/ha: 15.625 g ai/ha, evaluated after 13 days (100=total damage to plant; 0=no damage to plant), read-out: Velvetleaf damage rating; for pest or weed control at 62.5 g/ha: 62.5 g ai/ha, read-out: Velvetleaf damage rating (100=total damage to plant; 0=no damage to plant); for pest or weed control at 62.5 g/ha / pest or weed control at 250 g/ha: evaluated after 13 days; for pest or weed control at 250 g/ha: 250 g ai/ha, read-out: damage to plant, Velvetleaf (100=total damage to plant; 0=no damage to plant)
In short: as §1

[4] = test system: giant foxtail (Setaria faberi); assay: Test G Post-Emergence Protocol; details: Setaria faberi, post-emergence, 312 h; for pest or weed control at 15.625 g/ha: 15.625 g ai/ha, evaluated after 13 days (100=total damage to plant; 0=no damage to plant), read-out: Foxtail, Giant damage rating; for pest or weed control at 62.5 g/ha: 62.5 g ai/ha, read-out: Foxtail, Giant damage rating (100=total damage to plant; 0=no damage to plant); for pest or weed control at 62.5 g/ha / pest or weed control at 250 g/ha: evaluated after 13 days; for pest or weed control at 250 g/ha: 250 g ai/ha, read-out: damage to plant, Foxtail, Giant (100=total damage to plant; 0=no damage to plant)
In short: as §1

[5] = test system: redroot pigweed (Amaranthus retroflexus); assay: Test G Post-Emergence Protocol; details: Amaranthus retroflexus, post-emergence, 312 h; for pest or weed control at 15.625 g/ha: 15.625 g ai/ha, evaluated after 13 days (100=total damage to plant; 0=no damage to plant), read-out: Pigweed, Redroot damage rating; for pest or weed control at 62.5 g/ha: 62.5 g ai/ha, read-out: Pigweed, Redroot damage rating (100=total damage to plant; 0=no damage to plant); for pest or weed control at 62.5 g/ha / pest or weed control at 250 g/ha: evaluated after 13 days; for pest or weed control at 250 g/ha: 250 g ai/ha, read-out: damage to plant, Pigweed, Redroot (100=total damage to plant; 0=no damage to plant)
In short: as §1

[6] = test system: ivy-leaved morning glory (Ipomoea hederacea); assay: Test G Post-Emergence Protocol; details: Ipomoea, post-emergence, 312 h; for pest or weed control at 15.625 g/ha: 15.625 g ai/ha, evaluated after 13 days (100=total damage to plant; 0=no damage to plant), read-out: Morningglory, Ivy-leaved damage rating; for pest or weed control at 62.5 g/ha: 62.5 g ai/ha, read-out: Morningglory, Ivy-leaved damage rating (100=total damage to plant; 0=no damage to plant); for pest or weed control at 62.5 g/ha / pest or weed control at 250 g/ha: evaluated after 13 days; for pest or weed control at 250 g/ha: 250 g ai/ha, read-out: damage to plant, Morningglory, Ivy-leaved (100=total damage to plant; 0=no damage to plant)
In short: as §1

[7] = test system: barnyardgrass (Echinochloa crus-galli); assay: Test G Pre-Emergence Protocol; details: Echinochloa crus-galli, pre-emergence, 312 h, evaluated after 13 days; for pest or weed control at 15.625 g/ha: 15.625 g ai/ha, read-out: Barnyard grass damage rating (100=total damage to plant; 0=no damage to plant); for pest or weed control at 62.5 g/ha: 62.5 g ai/ha, 100=total damage to plant, 0=no damage to plant, read-out: plant damage rating, Barnyardgrass; for pest or weed control at 250 g/ha: 250 g ai/ha, read-out: Barnyardgrass damage rating (100=total damage to plant; 0=no damage to plant)
In short: (§2)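 Pre-emergence spray, 15.625/62.5/250 g/ha, vehicle acetone:water 50:50 + 0.5% Tween 20, applied 1 d after sowing. Glasshouse 24/16° C, 14 h light, 65% RH, watered twice daily. Visual damage rating at 13 d, 0–100 scale.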

corn (Zea mays) [8] = assay: Test G Pre-Emergence Protocol; details: Zea mays, pre-emergence, 312 h, evaluated after 13 days; for plant injury at 15.625 g/ha: 15.625 g ai/ha; for plant injury at 15.625 g/ha / plant injury at 250 g/ha: read-out: Corn damage rating (100=total damage to plant; 0=no damage to plant); for plant injury at 62.5 g/ha: 62.5 g ai/ha, 100=total damage to plant, 0=no damage to plant, read-out: plant damage rating, Corn; for plant injury at 250 g/ha: 250 g ai/ha
In short: as §2

[9] = test system: velvetleaf (Abutilon theophrasti); assay: Test G Pre-Emergence Protocol; details: Abutilon theophrasti, pre-emergence, 312 h, evaluated after 13 days; for pest or weed control at 15.625 g/ha: 15.625 g ai/ha; for pest or weed control at 15.625 g/ha / pest or weed control at 250 g/ha: read-out: Velvetleaf damage rating (100=total damage to plant; 0=no damage to plant); for pest or weed control at 62.5 g/ha: 62.5 g ai/ha, 100=total damage to plant, 0=no damage to plant, read-out: plant damage rating, Velvetleaf; for pest or weed control at 250 g/ha: 250 g ai/ha
In short: as §2

[10] = test system: giant foxtail (Setaria faberi); assay: Test G Pre-Emergence Protocol; details: Setaria faberi, pre-emergence, 312 h, evaluated after 13 days; for pest or weed control at 15.625 g/ha: 15.625 g ai/ha; for pest or weed control at 15.625 g/ha / pest or weed control at 250 g/ha: read-out: Foxtail, Giant damage rating (100=total damage to plant; 0=no damage to plant); for pest or weed control at 62.5 g/ha: 62.5 g ai/ha, 100=total damage to plant, 0=no damage to plant, read-out: plant damage rating, Foxtail, Giant; for pest or weed control at 250 g/ha: 250 g ai/ha
In short: as §2

[11] = test system: redroot pigweed (Amaranthus retroflexus); assay: Test G Pre-Emergence Protocol; details: Amaranthus retroflexus, pre-emergence, 312 h, evaluated after 13 days; for pest or weed control at 15.625 g/ha: 15.625 g ai/ha; for pest or weed control at 15.625 g/ha / pest or weed control at 250 g/ha: read-out: Pigweed, Redroot damage rating (100=total damage to plant; 0=no damage to plant); for pest or weed control at 62.5 g/ha: 62.5 g ai/ha, 100=total damage to plant, 0=no damage to plant, read-out: plant damage rating, Pigweed, Redroot; for pest or weed control at 250 g/ha: 250 g ai/ha
In short: as §2

[12] = test system: ivy-leaved morning glory (Ipomoea hederacea); assay: Test G Pre-Emergence Protocol; details: Ipomoea, pre-emergence, 312 h, evaluated after 13 days; for pest or weed control at 15.625 g/ha: 15.625 g ai/ha, read-out: Morning-glory, Ivy-leaved damage rating (100=total damage to plant; 0=no damage to plant); for pest or weed control at 62.5 g/ha: 62.5 g ai/ha, 100=total damage to plant, 0=no damage to plant, read-out: plant damage rating, Morningglory, Ivy-leaved; for pest or weed control at 250 g/ha: 250 g ai/ha, read-out: Morningglory, Ivy-leaved damage rating (100=total damage to plant; 0=no damage to plant)
In short: as §2

| SMILES | pest or weed control at 15.625 g/ha [1] [%] | pest or weed control at 62.5 g/ha [1] [%] | pest or weed control at 250 g/ha [1] [%] | plant injury at 15.625 g/ha (corn (Zea mays) [2]) [%] | plant injury at 62.5 g/ha (corn (Zea mays) [2]) [%] | plant injury at 250 g/ha (corn (Zea mays) [2]) [%] | pest or weed control at 15.625 g/ha [3] [%] | pest or weed control at 62.5 g/ha [3] [%] | pest or weed control at 250 g/ha [3] [%] | pest or weed control at 15.625 g/ha [4] [%] | pest or weed control at 62.5 g/ha [4] [%] | pest or weed control at 250 g/ha [4] [%] | pest or weed control at 15.625 g/ha [5] [%] | pest or weed control at 62.5 g/ha [5] [%] | pest or weed control at 250 g/ha [5] [%] | pest or weed control at 15.625 g/ha [6] [%] | pest or weed control at 62.5 g/ha [6] [%] | pest or weed control at 250 g/ha [6] [%] | pest or weed control at 15.625 g/ha [7] [%] | pest or weed control at 62.5 g/ha [7] [%] | also measured |
| --- | --- | --- | --- | --- | --- | --- | --- | --- | --- | --- | --- | --- | --- | --- | --- | --- | --- | --- | --- | --- | --- |
| Cc1ccc([C@@H]2CN(C)C(=O)[C@H]2C(=O)Nc2cccc(F)c2F)cc1Cl (racemic) [Compound 1475] | 30 | 60 | 50 | 30 | 40 | 70 | 10 | 10 | 10 | 70 | 70 | 70 | 10 | 30 | 50 | 20 | 0 | 70 | 10 | 70 | pest or weed control at 250 g/ha [7]: 80%; plant injury at 15.625 g/ha (corn (Zea mays) [8]): 0%; plant injury at 62.5 g/ha (corn (Zea mays) [8]): 30%; plant injury at 250 g/ha (corn (Zea mays) [8]): 50%; pest or weed control at 15.625 g/ha [9]: 0%; pest or weed control at 62.5 g/ha [9]: 0%; pest or weed control at 250 g/ha [9]: 0%; pest or weed control at 15.625 g/ha [10]: 70%; pest or weed control at 62.5 g/ha [10]: 80%; pest or weed control at 250 g/ha [10]: 90%; pest or weed control at 15.625 g/ha [11]: 0%; pest or weed control at 62.5 g/ha [11]: 0%; pest or weed control at 250 g/ha [11]: 0%; pest or weed control at 15.625 g/ha [12]: 0%; pest or weed control at 62.5 g/ha [12]: 0%; pest or weed control at 250 g/ha [12]: 10% |
| COc1c(Cl)ccc([C@H]2CN(C)C(=O)[C@@H]2C(=O)Nc2cccc(F)n2)c1F (racemic) [Compound 1477] | 50 | 60 | 60 | 30 | 60 | 50 | 0 | 20 | 20 | 50 | 60 | 70 | 0 | 0 | 30 | 0 | 0 | 0 | 50 | 60 | pest or weed control at 250 g/ha [7]: 80%; plant injury at 15.625 g/ha (corn (Zea mays) [8]): 20%; plant injury at 62.5 g/ha (corn (Zea mays) [8]): 40%; plant injury at 250 g/ha (corn (Zea mays) [8]): 50%; pest or weed control at 15.625 g/ha [9]: 0%; pest or weed control at 62.5 g/ha [9]: 0%; pest or weed control at 250 g/ha [9]: 0%; pest or weed control at 15.625 g/ha [10]: 60%; pest or weed control at 62.5 g/ha [10]: 80%; pest or weed control at 250 g/ha [10]: 90%; pest or weed control at 15.625 g/ha [11]: 0%; pest or weed control at 62.5 g/ha [11]: 0%; pest or weed control at 250 g/ha [11]: 0%; pest or weed control at 15.625 g/ha [12]: 0%; pest or weed control at 62.5 g/ha [12]: 0%; pest or weed control at 250 g/ha [12]: 0% |
| CN1C[C@@H](c2cncc(F)c2)[C@H](C(=O)Nc2cccc(F)c2F)C1=O (racemic) [Compound 1482] | 30 | 30 | 60 | 20 | 30 | 30 | 0 | 0 | 10 | 30 | 30 | 60 | 0 | 0 | 0 | 0 | 0 | 0 | 10 | 30 | pest or weed control at 250 g/ha [7]: 80%; plant injury at 15.625 g/ha (corn (Zea mays) [8]): 30%; plant injury at 62.5 g/ha (corn (Zea mays) [8]): 40%; plant injury at 250 g/ha (corn (Zea mays) [8]): 30%; pest or weed control at 15.625 g/ha [9]: 0%; pest or weed control at 62.5 g/ha [9]: 0%; pest or weed control at 250 g/ha [9]: 10%; pest or weed control at 15.625 g/ha [10]: 20%; pest or weed control at 62.5 g/ha [10]: 60%; pest or weed control at 250 g/ha [10]: 90%; pest or weed control at 15.625 g/ha [11]: 0%; pest or weed control at 62.5 g/ha [11]: 0%; pest or weed control at 250 g/ha [11]: 10%; pest or weed control at 15.625 g/ha [12]: 0%; pest or weed control at 62.5 g/ha [12]: 0%; pest or weed control at 250 g/ha [12]: 10% |
